In patent US8969325B2, “TRPV1 antagonists” (AbbVie Inc., priority 2011, dated 2015):

Columns and labels:
human TRPV1 [1] = target: T1, human TRPV1 (Homo sapiens (Human), UniProt Q8NER1); assay: Acid Activation Assay (pH 5.0, intracellular Ca2+, FLIPR); format: cell-based; conditions: percentage of the maximal pH 5.0-induced response remaining; recombinant HEK293 hTRPV1 cells; maximum concentration tested 37.5 μM
Procedure, shortened: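 Readout: peak [Ca2+]i fluorescence over baseline on FLIPR, expressed as percentage remaining of the maximal pH 5.0-evoked signal. Stable hTRPV1-HEK293 cells with Calcium-4 dye received compound (12 half-log concentrations, maximum 37.5 μM) 3 min before acidic pH 5.0 buffer.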

human TRPV1 [2] = target: T1, human TRPV1; assay: Capsaicin Activation Assay (intracellular Ca2+, FLIPR); format: cell-based; conditions: recombinant HEK293 cells expressing hTRPV1, 50 nM capsaicin
Procedure, shortened: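 Ca2+ fluorescence was recorded by FLIPR every 1 to 5 seconds in HEK293 cells, clonally selected for stable human TRPV1 expression and plated one day ahead. Test compounds came as serial dilutions of 10 mM DMSO stocks.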

T1 sequence (Q8NER1 whole entry): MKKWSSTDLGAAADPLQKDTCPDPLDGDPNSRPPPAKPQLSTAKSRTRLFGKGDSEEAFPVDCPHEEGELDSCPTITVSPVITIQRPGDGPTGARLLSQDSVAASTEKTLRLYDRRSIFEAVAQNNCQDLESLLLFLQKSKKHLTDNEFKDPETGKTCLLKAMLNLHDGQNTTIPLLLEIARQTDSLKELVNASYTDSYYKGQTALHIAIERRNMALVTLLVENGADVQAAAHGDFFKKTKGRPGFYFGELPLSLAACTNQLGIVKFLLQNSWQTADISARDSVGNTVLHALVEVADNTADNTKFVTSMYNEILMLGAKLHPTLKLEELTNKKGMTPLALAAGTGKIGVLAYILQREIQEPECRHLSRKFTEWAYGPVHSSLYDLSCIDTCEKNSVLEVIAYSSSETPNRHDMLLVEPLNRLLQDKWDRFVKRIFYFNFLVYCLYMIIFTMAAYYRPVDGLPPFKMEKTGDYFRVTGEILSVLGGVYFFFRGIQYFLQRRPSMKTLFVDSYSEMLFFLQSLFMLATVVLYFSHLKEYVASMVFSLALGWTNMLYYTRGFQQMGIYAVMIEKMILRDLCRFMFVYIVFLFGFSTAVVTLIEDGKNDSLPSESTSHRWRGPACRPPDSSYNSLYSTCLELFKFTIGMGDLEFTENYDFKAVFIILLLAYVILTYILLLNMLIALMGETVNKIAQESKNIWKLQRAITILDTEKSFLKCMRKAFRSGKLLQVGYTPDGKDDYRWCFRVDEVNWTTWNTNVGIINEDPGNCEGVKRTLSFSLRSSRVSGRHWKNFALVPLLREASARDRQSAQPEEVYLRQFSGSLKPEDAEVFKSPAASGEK

human TRPV1 H^+ (max % remain) (human TRPV1 [1]) | IC50 (human TRPV1 [2]) | SMILES
45% | 63 nM | Cn1c(=O)ccc2c(NC(=O)N[C@@H]3CC(CF)(CF)Oc4ccccc43)cccc21 [Example 80, 1-[(4R)-2,2-bis(fluoromethyl)-3,4-dihydro-2H-chromen-4-yl]-3-(1-methyl-2-oxo-1,2-dihydroquinolin-5-yl)urea]
15% | 38 nM | CN1C(=O)NCc2c(NC(=O)N[C@@H]3CC(CF)(CF)Oc4cc(C(F)(F)F)ccc43)cccc21 [Example 146, 1-[(4R)-2,2-bis(fluoromethyl)-7-(trifluoromethyl)-3,4-dihydro-2H-chromen-4-yl]-3-(1-methyl-2-oxo-1,2,3,4-tetrahydroquinazolin-5-yl)urea]
48% | 26 nM | Cn1c(=O)ccc2c(NC(=O)N[C@@H]3CC(CF)(CF)Oc4c3ccc(Cl)c4F)cccc21 [Example 21, 1-[(4R)-7-chloro-8-fluoro-2,2-bis(fluoromethyl)-3,4-dihydro-2H-chromen-4-yl]-3-(1-methyl-2-oxo-1,2-dihydroquinolin-5-yl)urea]
56% | 270 nM | CN1Cc2ccc(NC(=O)N[C@@H]3CC(C)(C)Oc4ccccc43)cc2NC1=O [Example 193, 1-[(4R)-2,2-dimethyl-3,4-dihydro-2H-chromen-4-yl]-3-(3-methyl-2-oxo-1,2,3,4-tetrahydroquinazolin-7-yl)urea]
53% | 170 nM | CCCC1(CCC)C[C@@H](NC(=O)Nc2cccc3c2CNC(=O)N3C)c2cc(F)ccc2O1 [Example 151, 1-[(4R)-6-fluoro-2,2-dipropyl-3,4-dihydro-2H-chromen-4-yl]-3-(1-methyl-2-oxo-1,2,3,4-tetrahydroquinazolin-5-yl)urea]
13% | 55 nM | CCC1(CC)C[C@@H](NC(=O)Nc2cccc3c2ccc(=O)n3C)c2ccc(C(F)(F)F)cc2O1 [Example 69, 1-[(4R)-2,2-diethyl-7-(trifluoromethyl)-3,4-dihydro-2H-chromen-4-yl]-3-(1-methyl-2-oxo-1,2-dihydroquinolin-5-yl)urea]
98% | 1000 nM | C[C@@]1(C(F)F)C[C@@H](NC(=O)Nc2ccc3c(c2)NC(=O)CO3)c2ccccc2O1 [Example 130, 1-[(2S,4R)-2-(difluoromethyl)-2-methyl-3,4-dihydro-2H-chromen-4-yl]-3-(3-oxo-3,4-dihydro-2H-1,4-benzoxazin-6-yl)urea]
105% | 95 nM | CCC1(CC)C[C@@H](NC(=O)Nc2ccc3c(c2)NC(=O)CO3)c2cccc(F)c2O1 [Example 101, 1-[(4R)-2,2-diethyl-8-fluoro-3,4-dihydro-2H-chromen-4-yl]-3-(3-oxo-3,4-dihydro-2H-1,4-benzoxazin-6-yl)urea]
37% | 8 nM | Cn1c(=O)ccc2c(NC(=O)N[C@@H]3CCc4cc(Cl)ccc43)cccc21 [Example 96, 1-[(1R)-5-chloro-2,3-dihydro-1H-inden-1-yl]-3-(1-methyl-2-oxo-1,2-dihydroquinolin-5-yl)urea]
102% | 770 nM | CC1(C)C[C@@H](NC(=O)Nc2ccc3c(c2)NC(=O)CO3)c2cc(F)ccc2O1 [Example 113, 1-[(4R)-6-fluoro-2,2-dimethyl-3,4-dihydro-2H-chromen-4-yl]-3-(3-oxo-3,4-dihydro-2H-1,4-benzoxazin-6-yl)urea]
20% | 1900 nM | O=C(Nc1ccc2c(c1)NC(=O)N(CCO)C2)N[C@@H]1CC(CF)(CF)Oc2cc(Cl)ccc21 [Example 316, 1-[(4R)-7-chloro-2,2-bis(fluoromethyl)-3,4-dihydro-2H-chromen-4-yl]-3-[3-(2-hydroxyethyl)-2-oxo-1,2,3,4-tetrahydroquinazolin-7-yl]urea]
75% | 10000 nM | CN1C(=O)CCc2ccc(NC(=O)N[C@@H]3CC4(CCCC4)Oc4ccccc43)cc21 [Example 288, 1-[(4R)-3,4-dihydrospiro[chromene-2,1′-cyclopentan]-4-yl]-3-(1-methyl-2-oxo-1,2,3,4-tetrahydroquinolin-7-yl)urea]
53% | 31 nM | Cn1c(=O)ccc2c(NC(=O)N[C@@H]3CC(C)(C)Oc4cc(Br)ccc43)cccc21 [Example 89, 1-[(4R)-7-bromo-2,2-dimethyl-3,4-dihydro-2H-chromen-4-yl]-3-(1-methyl-2-oxo-1,2-dihydroquinolin-5-yl)urea]
57% | 28 nM | Cn1c(=O)ccc2c(NC(=O)N[C@@H]3CCOc4cc(OC(F)(F)F)ccc43)cccc21 [Example 87, 1-(1-methyl-2-oxo-1,2-dihydroquinolin-5-yl)-3-[(4R)-7-(trifluoromethoxy)-3,4-dihydro-2H-chromen-4-yl]urea]
51% | 210 nM | CN1Cc2ccc(NC(=O)N[C@@H]3CC(C)(C)Oc4c3ccc(F)c4Cl)cc2NC1=O [Example 172, 1-[(4R)-8-chloro-7-fluoro-2,2-dimethyl-3,4-dihydro-2H-chromen-4-yl]-3-(3-methyl-2-oxo-1,2,3,4-tetrahydroquinazolin-7-yl)urea]
25% | 37 nM | O=C1CCc2ccc(NC(=O)N[C@@H]3CCc4cc(F)ccc43)cc2N1 [Example 240, 1-[(1R)-5-fluoro-2,3-dihydro-1H-inden-1-yl]-3-(2-oxo-1,2,3,4-tetrahydroquinolin-7-yl)urea]
27% | 51 nM | CN1C(=O)NCc2c(NC(=O)N[C@@H]3C[C@](C)(CF)Oc4cc(Cl)ccc43)cccc21 [Example 7, 1-[(2R,4R)-7-chloro-2-(fluoromethyl)-2-methyl-3,4-dihydro-2H-chromen-4-yl]-3-(1-methyl-2-oxo-1,2,3,4-tetrahydroquinazolin-5-yl)urea]
18% | 3 nM | CN1C(=O)NCc2c(NC(=O)N[C@@H]3C[C@@](C)(C(F)(F)F)Oc4ccccc43)cccc21 [Example 165, 1-(1-methyl-2-oxo-1,2,3,4-tetrahydroquinazolin-5-yl)-3-[(2S,4R)-2-methyl-2-(trifluoromethyl)-3,4-dihydro-2H-chromen-4-yl]urea]
0% | 169 nM | CCC1(CC)C[C@@H](NC(=O)Nc2ccc3c(c2)NC(=O)N(CCO)C3)c2ccc(Cl)cc2O1 [Example 47, 1-[(4R)-7-chloro-2,2-diethyl-3,4-dihydro-2H-chromen-4-yl]-3-[3-(2-hydroxyethyl)-2-oxo-1,2,3,4-tetrahydroquinazolin-7-yl]urea]
91% | > 38000 nM | O=C1COc2ccc(NC(=O)N[C@@H]3CCOc4cc(OC(F)(F)F)ccc43)cc2N1 [Example 115, 1-(3-oxo-3,4-dihydro-2H-1,4-benzoxazin-6-yl)-3-[(4R)-7-(trifluoromethoxy)-3,4-dihydro-2H-chromen-4-yl]urea]
23% | 10 nM | Cn1c(=O)ccc2c(NC(=O)N[C@@H]3CCc4cc(C(F)(F)F)ccc43)cccc21 [Example 86, 1-(1-methyl-2-oxo-1,2-dihydroquinolin-5-yl)-3-[(1R)-5-(trifluoromethyl)-2,3-dihydro-1H-inden-1-yl]urea]
55% | 1300 nM | CN1Cc2ccc(NC(=O)N[C@@H]3CC(C)(C)Oc4nc(C(F)(F)F)ccc43)cc2NC1=O [Example 208, 1-[(4R)-2,2-dimethyl-7-(trifluoromethyl)-3,4-dihydro-2H-pyrano[2,3-b]pyridin-4-yl]-3-(3-methyl-2-oxo-1,2,3,4-tetrahydroquinazolin-7-yl)urea]
0% | 4.5 nM | O=C1COc2c(cccc2NC(=O)N[C@@H]2CC(CF)(CF)Oc3cc(Cl)ccc32)N1 [Example 323, 1-[(4R)-7-chloro-2,2-bis(fluoromethyl)-3,4-dihydro-2H-chromen-4-yl]-3-(3-oxo-3,4-dihydro-2H-1,4-benzoxazin-8-yl)urea]
75% | 110 nM | CCC1(CC)C[C@@H](NC(=O)Nc2ccc3c(c2)NC(=O)CO3)c2ccc(C(F)(F)F)cc2O1 [Example 103, 1-[(4R)-2,2-diethyl-7-(trifluoromethyl)-3,4-dihydro-2H-chromen-4-yl]-3-(3-oxo-3,4-dihydro-2H-1,4-benzoxazin-6-yl)urea]
52% | 130 nM | CN1Cc2ccc(NC(=O)N[C@@H]3CCc4cc(C(F)(F)F)ccc43)cc2NC1=O [Example 174, 1-(3-methyl-2-oxo-1,2,3,4-tetrahydroquinazolin-7-yl)-3-[(1R)-5-(trifluoromethyl)-2,3-dihydro-1H-inden-1-yl]urea]
43% | 240 nM | CN1Cc2ccc(NC(=O)N[C@@H]3C[C@](C)(CF)Oc4cc(C(F)(F)F)ccc43)cc2NC1=O [Example 206, 1-[(2R,4R)-2-(fluoromethyl)-2-methyl-7-(trifluoromethyl)-3,4-dihydro-2H-chromen-4-yl]-3-(3-methyl-2-oxo-1,2,3,4-tetrahydroquinazolin-7-yl)urea]
64% | 28000 nM | CN1Cc2ccc(NC(=O)N[C@H]3CC4(CCC4)Oc4ccc(F)cc43)cc2NC1=O [Example 203, 1-[(4S)-6-fluoro-3,4-dihydrospiro[chromene-2,1′-cyclobutan]-4-yl]-3-(3-methyl-2-oxo-1,2,3,4-tetrahydroquinazolin-7-yl)urea]
86% | 220 nM | CCC1(CC)C[C@@H](NC(=O)Nc2ccc3c(c2)N(C)C(=O)CC3)c2cc(F)ccc2O1 [Example 270, 1-[(4R)-2,2-diethyl-6-fluoro-3,4-dihydro-2H-chromen-4-yl]-3-(1-methyl-2-oxo-1,2,3,4-tetrahydroquinolin-7-yl)urea]
